This note sets out measurements from patent US4327097A, “Novel penicillins” (Toyama Chemical Co., Ltd., priority 1974, dated 1982).

Values after ≈ are worked out from the molar mass of the structure shown.

For assay [1], the target named is β-lactamase, Escherichia freundii GN 346 (Citrobacter freundii, UniProt Q46041). Nature of the assay: Resistant activity against β-lactamase, iodometric assay. Format: biochemical. Conditions: control Cephalorizine = 100. The protocol:
(§1) (4) Resistant activity of each cephalosporin compound against β-lactamase, Proteus vulgaris GN 76 and Escherichia freundii GN 346:
(§2) The resistant activity of each cephalosporin compound against β-lactamase was measured in the manner described below.
(§3) β-lactamase was prepared from Proteus vulgaris GN 76 and Escherichia freundii GN 346. 10 ml of an overnight culture in Heart Infusion broth was diluted with 100 ml of a medium containing 2 g of yeast extract, 10 g of polypeptone, 2 g of glucose, 7 g of disodium hydrogen phosphate, 2 g of potassium dihydrogen phosphate, 1.2 g of ammonium sulfate and 0.4 g of magnesium sulfate, per liter, and incubated with shaking at 37° C. After incubation of 2 hrs, Penicillin G (50 μg/ml) was added as the inducer, and further incubated for 2 hrs. The resulting cells were collected by centrifugation (5,000 r.p.m.×10 min.) and washed two times with 0.1 M phosphate buffer (pH 7.0). Subsequently, the cells were subjected to sonication (20 KHz, 5 min.) and then centrifuged at 15,000 r.p.m. for 60 min. By using the supernatant of enzyme fluid, the stability of each compound against β-lactamase was determined by the iodometric assay method. Each numeral shown in Table 7-2 is a relative activity value calculated by assuming as 100 the activity of the control Cephalorizine.

In assay [2] the target is T1, β-lactamase, Proteus vulgaris GN 76 (Proteus vulgaris, UniProt P52664).
T1 construct: By using the supernatant of enzyme fluid; endogenous in cells; host or cells: Proteus vulgaris GN 76 (penicillin G-induced cells, sonicated, 15,000 r.p.m. supernatant)
T1 sequence (P52664 30-300): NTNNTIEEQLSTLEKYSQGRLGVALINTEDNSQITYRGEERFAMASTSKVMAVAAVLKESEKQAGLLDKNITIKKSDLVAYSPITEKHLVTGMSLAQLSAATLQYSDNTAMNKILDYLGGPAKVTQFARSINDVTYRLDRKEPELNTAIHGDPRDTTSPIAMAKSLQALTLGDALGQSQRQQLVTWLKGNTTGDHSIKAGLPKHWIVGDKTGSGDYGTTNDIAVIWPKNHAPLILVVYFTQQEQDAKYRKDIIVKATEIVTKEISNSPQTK
Described as above. Format: biochemical. Particulars: control Cephalorizine = 100. The protocol: as §1, §2, §3

For another assay, the system named is Shigella flexneri. Nature of the assay: MIC against clinical isolates. The format is cell-based. Particulars: Table 5-5, clinical isolate; unit assumed. The protocol:
(§4) The minimum inhibitory concentration (MIC) was determined by the plate method disclosed in "Chemotherapy" (Japan), Vol. 16, (1968), pages 98-99. The culture medium used was a Heart infusion agar (pH 7.4). The number of the cells per plate used in the inoculum was 10^4 (10^6 cells/ml).
(§5) MIC was determined in the same manner as in the preceding paragraph (1).

A further assay deals with Shigella sonnei. As to the kind of experiment: MIC against clinical isolates. Format: cell-based. Particulars: Table 5-5, clinical isolate; unit assumed. The protocol:
as §4, §5

For a further assay, the system named is Pseudomonas aeruginosa. As to the kind of experiment: MIC against clinical isolates. Format: cell-based. Particulars: unit assumed; for MIC Pseudomonas aeruginosa GN4: Table 6-3, clinical isolate.
Another assay concerns Escherichia coli NIHJ. As to the kind of experiment: MIC, plate method, standard strains. The format is cell-based. Conditions: Table 3, standard strain; unit assumed. The protocol:
as §4

Assay [3] concerns Pseudomonas aeruginosa I.F.O. As to the kind of experiment: MIC, plate method, standard strains. Particulars: Table 3, standard strain; unit assumed. Format: cell-based. The protocol:
as §4

The next assay has as its system Proteus vulgaris 3027. Nature of the assay: MIC, plate method, standard strains. Particulars: Table 3, standard strain; unit assumed. The format is cell-based. The protocol: as §4
In assay [4] the test system is Staphylococcus aureus 209p. As to the kind of experiment: MIC, plate method, standard strains. Particulars: Table 3, standard strain, Heart infusion agar pH 7.4; unit assumed. Format: cell-based. The protocol: as §4
The test system of assay [5] is Klebsiella pneumoniae. As to the kind of experiment: MIC, plate method, standard strains. The format is cell-based. Particulars: Table 3, standard strain; unit assumed. The protocol: as §4
The test system of assay [6] is Klebsiella pneumoniae. As to the kind of experiment: MIC against clinical isolates. Format: cell-based. Particulars: Table 5-4, clinical isolate; unit assumed.
The next assay concerns Escherichia coli. Nature of the assay: MIC against clinical isolates. The format is cell-based. Particulars: Table 5-2, clinical isolate; unit assumed.
In another assay the test system is Staphylococcus aureus. Nature of the assay: MIC against clinical isolates. The format is cell-based. Particulars: Table 5-1, clinical isolate; unit assumed.
The test system of assay [7] is β-lactamase, Pseudomonas aeruginosa GN 238. As to the kind of experiment: Resistant activity against β-lactamase, iodometric assay. Format: biochemical. Conditions: β-lactamase from Pseudomonas aeruginosa GN 238; Potassium Penicillin G = 100. The protocol: (3) Resistant activity against β-lactamase, Pseudomonas aerugionsa GN 238:
The resistant activity of each compound against β-lactamase was measured in the manner described below.
β-Lactamase was prepared from Pseudomonas aeruginosa GN 238. This microorganism was cultured in 100 ml of a medium containing 2 g of yeast extract, 10 g of polypeptone, 2 g of glucose, 7 g of disodium hydrogen phosphate, 2 g of potassium dihydrogen phosphate, 1.2 g of ammonium sulfate and 0.4 g of magnesium sulfate, per liter, in a 500-ml Erlenmeyer flask for 6 hrs. at 37° C. with shaking. The resulting cells were collected by centrifugation (5,000 r.p.m.×10 min.), washed three times with 0.1 M phosphate buffer (pH 7.0). Subsequently, the cells were subjected to sonication (20 KHz, 20 min.) and then centrifuged at 15,000 r.p.m. for 60 min. By using the supernatant of enzyme fluid, the resistance of each compound against β-lactamase was determined by the iodometric assay method. Each numeral shown in Table 7 is a relative activity value calculated by assuming as 100 the activity of the control Potassium Penicillin G.

Sequence of β-lactamase, Escherichia freundii GN 346 (Q46041 entry or part of it): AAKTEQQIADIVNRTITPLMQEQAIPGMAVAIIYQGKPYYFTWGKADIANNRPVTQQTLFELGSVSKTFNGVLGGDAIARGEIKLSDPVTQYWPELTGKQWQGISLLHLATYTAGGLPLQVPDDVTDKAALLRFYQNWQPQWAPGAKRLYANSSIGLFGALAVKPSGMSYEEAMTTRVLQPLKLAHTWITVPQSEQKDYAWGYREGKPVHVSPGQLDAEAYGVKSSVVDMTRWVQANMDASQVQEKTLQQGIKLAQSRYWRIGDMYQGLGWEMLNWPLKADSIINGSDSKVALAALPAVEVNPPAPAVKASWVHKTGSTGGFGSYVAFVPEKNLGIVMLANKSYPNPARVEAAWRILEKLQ

As for `CC1=C(C(=O)O)N2C(=O)[C@@H](NC(=O)[C@H](N)c3ccccc3)[C@H]2SC1` [Sodium Cephalexin, reference compound], the “Relative activity (%) against β-lactamase, E. freundii GN 346” value (from here on “Relative activity (%) … E. freundii GN 346”) in [1] turned out to be 29%. For the same compound, the “Relative activity (%) against β-lactamase, Pr. vulgaris GN 76” value (“Relative activity (%) … Pr. vulgaris GN 76” for short) in assay [2] is given as 150%.

`CCN1CCN(C(=O)N[C@@H](C(=O)N[C@@H]2C(=O)N3[C@@H]2SC(C)(C)[C@@H]3C(=O)O)c2ccccc2)C(=O)C1=O` [Compound 36]: in the assay on Shigella flexneri, the MIC Shigella flexneri JS 11215 came to 100 mg/L (≈ 193 µM) and the MIC Shigella flexneri JS 11839 came out at 3.13 mg/L (≈ 6.05 µM). In the assay on Shigella sonnei, the MIC Shigella sonnei JS 11232 worked out at 50 mg/L (≈ 96.6 µM) and the MIC Shigella sonnei JS 11755 came to 3.13 mg/L (≈ 6.05 µM). Moreover, in the assay on Pseudomonas aeruginosa (Table 5-3, clinical isolate), the MIC Pseudomonas aeruginosa GN 82 came out at 6.25 mg/L (≈ 12.1 µM), the MIC Pseudomonas aeruginosa GN 163 is 6.25 mg/L (≈ 12.1 µM), the MIC Pseudomonas aeruginosa GN 221 is 3.13 mg/L (≈ 6.05 µM) and the MIC Pseudomonas aeruginosa GN 376 worked out at 6.25 mg/L (≈ 12.1 µM). In the assay on Pseudomonas aeruginosa (Table 5-3, clinical isolate), this compound showed an MIC Pseudomonas aeruginosa GN 383 of 6.25 mg/L (≈ 12.1 µM) and an MIC Pseudomonas aeruginosa GN 1091 of 6.25 mg/L (≈ 12.1 µM). The compound further came in with an MIC Esche--richin coil NIHJ against Escherichia coli NIHJ of less than 1.57 mg/L. In assay [3], the MIC Pseudomonas aeruginosa I.F.C was 6.25 mg/L (≈ 12.1 µM). Also, in the assay on Proteus vulgaris 3027, the MIC Proteus vulgaris 3027 was less than 1.57 mg/L. In [4], this compound showed an MIC Staphylococcus aureus 209p of less than 1.57 mg/L. Also, the MIC Klebsiella pneumoniae against Klebsiella pneumoniae [5] was less than 1.57 mg/L. Further, in the assay with Klebsiella pneumoniae [6], the MIC Klebsiella pneumoniae GN 917 was found to be 6.25 mg/L (≈ 12.1 µM). In the assay on Escherichia coli, this compound yielded an MIC Escherichia coli GN 3435 of 1.57 mg/L (≈ 3.03 µM), an MIC Escherichia coli GN 3452 of 3.13 mg/L (≈ 6.05 µM), an MIC Escherichia coli GN 3481 of 3.13 mg/L (≈ 6.05 µM) and an MIC Escherichia coli K-1 of 3.13 mg/L (≈ 6.05 µM). In the assay on Escherichia coli, this compound had an MIC Escherichia coli K-2 of 3.13 mg/L (≈ 6.05 µM) and an MIC Escherichia coli K-4 of 1.57 mg/L (≈ 3.03 µM). In addition, in the assay with Staphylococcus aureus, the MIC Staphylococcus aureus F-2 was determined as 3.13 mg/L (≈ 6.05 µM), the MIC Staphylococcus aureus F-3 was 1.57 mg/L (≈ 3.03 µM), the MIC Staphylococcus aureus F-4 came out at 6.25 mg/L (≈ 12.1 µM) and the MIC Staphylococcus aureus MS 8588 was determined as 3.13 mg/L (≈ 6.05 µM). Moreover, in the assay with Staphylococcus aureus, the MIC Staphylococcus aureus MS 8596 is 3.13 mg/L (≈ 6.05 µM), the MIC Staphylococcus aureus MS 8684 was 3.13 mg/L (≈ 6.05 µM) and the MIC Staphylococcus aureus MS 8713 came out at 6.25 mg/L (≈ 12.1 µM). The “Relative activity (%), resistant activity against β-lactamase” value in [7] was determined as 14%.

As for `CCN1CCN(C(=O)NC(C(=O)NC2C(=O)N3C(C(=O)O)=C(CSc4nnnn4C)CSC23)c2ccccc2)C(=O)C1=O` (stereo not drawn) [Compound No. 69], the MIC Pseudomonas aeruginosa GN4 in the assay on Pseudomonas aeruginosa was found to be 25 mg/L (≈ 39.7 µM). Also, the “Relative activity (%) … E. freundii GN 346” value in [1] was found to be 0.1%. For the same compound, the “Relative activity (%) … Pr. vulgaris GN 76” value in assay [2] was determined as 4%.

For `CC(=O)OCC1=C(C(=O)O)N2C(=O)[C@@H](NC(=O)[C@H](N)c3ccccc3)[C@H]2SC1` [Sodium Cephaloglycin, reference compound], the MIC Pseudomonas aeruginosa GN4 against Pseudomonas aeruginosa was more than 200 mg/L. For the same compound, in the assay with Pseudomonas aeruginosa (Table 6-4, clinical isolate), the MIC Pseudomonas aeruginosa S-4 is more than 200 mg/L. Besides, the “Relative activity (%) … E. freundii GN 346” value in assay [1] is reported as 0.3%. For the same compound, the “Relative activity (%) … Pr. vulgaris GN 76” value in assay [2] amounted to 1300%.
